Experimental data taken from PMC3196589, “Fluorescent Peptide Biosensor for Probing the Relative Abundance of Cyclin-Dependent Kinases in Living Cells” (PLoS ONE, 2011).
No end group written: not given here.

Tests used:
Test in all cases: Live-cell ratiometric quantification of CDKSENS-Cy3/Ctrl-Cy5 fluorescence
Assay type in all cases: cell-based
[1] = test system: CDK/Cyclins in HT2-19 cells; conditions: for Mean Ratio CDKSENS-Cy3/Ctrl-Cy5: mean +/- SD of 3 fields
Method: (§1) Cell culture media, serum and antibiotics were purchased from Invitrogen. HeLa, HS68, A549, MCF-7 and U2OS cells were obtained from ATCC and were cultured in Dulbecco's Modified Eagle Medium (DMEM)+Glutamax supplemented with 10% Fetal Calf Serum (FCS), 1 mM penicillin and 1 mM streptomycin at 37°C in an atmosphere containing 5% CO2. HT2-19 cells, provided by Dr. A.Porter, were cultured in DMEM supplemented with non essential amino acids, antibiotics, sodium pyruvate, glutamine, and 10% FCS and grown with 50 uM isopropyl-thiogalactoside (IPTG) for maximal induction of CDK1 [28]. Cell extracts were prepared in lysis buffer containing 50 mM TrisHCl, pH 7.4, 150 mM NaCl, 0.1% NP40, 0.1% Deoxycholate, 2 mM EDTA, 1 mM phenylmethlsulfonyl fluoride (PMSF), CompleteTM protease inhibitors (Roche), 50 mM NaF, 40 mM β-Glycero-phosphate, 1 mM Na3VO4 and normalized following spectrophotometric dosage at 280 nm. […] Samples were then processed for SDS-PAGE and CDK, Cyclin retention was detected by Western blotting.
(§2) For fixed observations, cells were treated for 20 minutes with paraformaldehyde, nuclei were stained with Hoechst 33342 (Sigma), and cells were mounted with Prolong Gold AntiFade Reagent (Invitrogen). Epifluorescence images were acquired on a Leica DM6000 microscope (Leica Microsystems) piloted by the Metamorph software (Universal Imaging). For colocalization experiments, images were acquired on a Zeiss axioplan2/LSM510 META confocal microscope. Live-cell imaging was performed on a Zeiss Axiovert 200 M piloted by the Metamorph software. Images were processed with ImageJ software.
(§3) CDKSENS-Cy3 and Ctrl-Cy5 were complexed individually with CADY2 and codelivered into cells. Live-cell imaging acquisitions were substracted for background signal corresponding to minimal fluorescence levels using Metamorph. Image J was then used for image analysis. Regions of interest (ROI) corresponding to 10–15 cells in which fluorescence appeared homogeneous were designed and the mean grey levels of fluorescence for each channel (Cy3 and Cy5) were quantified within these ROIs. For each experiment, and the mean ratiometric value of CDKSENS-Cy3/Ctrl-Cy5 was calculated from 3–4 different ROIs. Each experiment was performed 3–4 times to assess the robustness of the quantification strategy. All statistical analyses are presented by the mean and standard deviation.

[2] = test system: CDK/Cyclins in HeLa cells
Method: as §1, §2, §3

[3] = test system: CDK/Cyclins in MCF7 cells
Method: as §1, §2, §3

**Q.** For “CDKSENS-Cy3: CDKSENS labelled with cyanine probe Cy3 (C(Cy3 maleimide)DKSENS)”, which “decrease of CDKSENS-Cy3/Ctrl-Cy5 ratio without IPTG” value ([1]; HT2-19, 4 days without IPTG vs 50 uM IPTG) is on record?
**A.** Its value is 20%.

**Q.** And the “Mean Ratio CDKSENS-Cy3/Ctrl-Cy5” value ([1]; HT219+IPTG)?
**A.** Its value is 5,37+/−0,18.

**Q.** What about the “Relative Mean Ratiometric Value” ([1]; HT219+IPTG, normalized to highest mean) of the same substance?
**A.** The value was 1+/−0,033.

**Q.** And the “Mean Ratio CDKSENS-Cy3/Ctrl-Cy5” value ([1]; HT219 WO IPTG)?
**A.** Its value is 4,36+/−0,21.

**Q.** What about the “Mean Ratio CDKSENS-Cy3/Ctrl-Cy5” value ([2]; HeLa (A549 experiment), mean +/- SD of 3 fields) of the same substance?
**A.** Its value is 6,72+/−0,37.

**Q.** And the “Relative Mean Ratiometric Value” ([2]; HeLa (A549 experiment), normalized to highest mean)?
**A.** Its value is 1+/−0,054.

**Q.** And the “Relative Mean Ratiometric Value” ([2]; HeLa (HS68 experiment), normalized to highest mean)?
**A.** Its value is 1+/−0,039.

**Q.** What about the “Mean Ratio CDKSENS-Cy3/Ctrl-Cy5” value ([2]; HeLa (MCF7 experiment), mean +/- SD of 4 fields) of the same substance?
**A.** The value was 7,29+/−0,39.

**Q.** And the “Relative Mean Ratiometric Value” ([2]; HeLa (MCF7 experiment), normalized to highest mean)?
**A.** Its value is 1+/−0,053.

**Q.** What about the “Relative Mean Ratiometric Value” ([2]; HeLa (U20S experiment), HeLa set to 1) of the same substance?
**A.** Its value is 1+/−0,079.

**Q.** And the “Mean Ratio CDKSENS-Cy3/Ctrl-Cy5” value ([2]; HeLa (U20S experiment), mean +/- SD of 4 fields)?
**A.** Its value is 6,79+/−0,53.

**Q.** What about the “Mean Ratio CDKSENS-Cy3/Ctrl-Cy5” value ([3]; MCF7, mean +/- SD of 4 fields) of the same substance?
**A.** The value was 5,99+/−0,33.

**Q.** And the “Relative Mean Ratiometric Value” ([3]; MCF7, normalized to HeLa mean)?
**A.** Its value is 0.82+/−0,046.

**Q.** What about the “decrease of CDKSENS-Cy3/Ctrl-Cy5 values, MCF7 vs HeLa” value ([3]; MCF7 compared to HeLa, range stated jointly for A549 and MCF7) of the same substance?
**A.** Its value is 18–20%.
